Consider 18 molecules from PubChem BioAssay AID330 (DTP/NCI, 2004).

The assay concerns P388 leukemia ip, CD2F1 mice, survival T/C. Briefly: NCI In Vivo Anticancer Drug Screen. Data for tumor model P388 Leukemia (intraperitoneal) in CD2F1 (CDF1) mice. Particulars: endpoint: median survival time, higher = longer survival. In outline: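 Mice carrying the transplanted tumor received test compound or vehicle. Survival was recorded in each group, and the value is the treated-group measurement divided by that of the vehicle-treated control group.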

Where [1] appears, read: dose: 50.0 mg/kg/injection, schedule: Q01DX009 (ip), vehicle: saline with Tween-80.
The mark [2] stands for this setting: dose: 100.0 mg/kg/injection, schedule: Q01DX009 (ip), vehicle: saline with Tween-80.
Where [3] appears, read: dose: 200.0 mg/kg/injection, schedule: Q01DX009 (ip), vehicle: saline with Tween-80.
Where [4] appears, read: dose: 12.5 mg/kg/injection, schedule: Q01DX009 (ip), vehicle: saline with Tween-80.
The mark [5] stands for this setting: dose: 25.0 mg/kg/injection, schedule: Q01DX009 (ip), vehicle: saline with Tween-80.
Where [6] appears, read: dose: 50.0 mg/kg/injection, schedule: Q01DX009 (ip), vehicle: Klucel (hydroxypropylcellulose) (HPC).
[7] abbreviates: dose: 100.0 mg/kg/injection, schedule: Q01DX009 (ip), vehicle: Klucel (hydroxypropylcellulose) (HPC).
The mark [8] stands for this setting: dose: 200.0 mg/kg/injection, schedule: Q01DX009 (ip), vehicle: Klucel (hydroxypropylcellulose) (HPC).
Where [9] appears, read: dose: 50.0 mg/kg/injection, schedule: Q01DX009 (ip), vehicle: saline.
[10] abbreviates: dose: 100.0 mg/kg/injection, schedule: Q01DX009 (ip), vehicle: saline.

Molecules are shown by their SMILES. “And” between values parts separate entries of the source, which are not always exact repeats. Equal entries are not always repeated. Toxic doses and inconclusive results are not listed.

In the case of `COc1cccc2c1C(=O)c1c(O)c3c(c(O)c1C2=O)CC(O)(C(C)=O)CC3OC1CC(N)C(OC2CC(N)C(O)C(C)O2)C(C)O1` (configuration not stated), the T/C by setting is: (dose: 0.39 mg/kg/injection, schedule: Q01DX009 (ip), vehicle: water) 116 % of control; (dose: 1.56 mg/kg/injection, schedule: Q01DX009 (ip), vehicle: water) 150 % of control; (dose: 3.13 mg/kg/injection, schedule: Q01DX009 (ip), vehicle: water) 161 % of control and 196 % of control; (dose: 3.13 mg/kg/injection, schedule: Q04DX003 (ip), vehicle: water) 112 % of control; (dose: 6.25 mg/kg/injection, schedule: Q01DX009 (ip), vehicle: water) 113 % of control and 116 % of control; (dose: 6.25 mg/kg/injection, schedule: Q04DX003 (ip), vehicle: water) 103 % of control. Further, the T/C is, setting by setting: (dose: 12.5 mg/kg/injection, schedule: Q01DX009 (ip), vehicle: water) 114 % of control and 86 % of control; (dose: 12.5 mg/kg/injection, schedule: Q04DX003 (ip), vehicle: water) 103 % of control; (dose: 25.0 mg/kg/injection, schedule: Q04DX003 (ip), vehicle: water) 121 % of control; (dose: 50.0 mg/kg/injection, schedule: Q04DX003 (ip), vehicle: water) 112 % of control.

As to `O=C1NC(=O)C(F)[CH]([Ge](=[O])[O][Ge](=[O])[CH]2NC(=O)NC(=O)C2F)N1` (configuration not stated), the T/C (dose: 30.0 mg/kg/injection, schedule: Q04DX002 (ip), vehicle: water) was 100 % of control; the T/C (dose: 60.0 mg/kg/injection, schedule: Q04DX002 (ip), vehicle: water) was 97 % of control; the T/C (dose: 100.0 mg/kg/injection, schedule: Q04DX002 (ip), vehicle: water) is 91 % of control; the T/C (dose: 120.0 mg/kg/injection, schedule: Q04DX002 (ip), vehicle: water) is 100 % of control; the T/C (dose: 200.0 mg/kg/injection, schedule: Q04DX002 (ip), vehicle: water) was 92 % of control; the T/C (dose: 240.0 mg/kg/injection, schedule: Q04DX002 (ip), vehicle: water) was 100 % of control.

`O=C1OCc2c1[nH]c(=O)[nH]c2=O`: the T/C is 105 % of control (dose: 6.25 mg/kg/injection, schedule: Q01DX009 (ip), vehicle: distilled water + Tween-80); 96 % of control (dose: 12.5 mg/kg/injection, schedule: Q01DX009 (ip), vehicle: distilled water + Tween-80); 110 % of control (dose: 25.0 mg/kg/injection, schedule: Q01DX009 (ip), vehicle: distilled water + Tween-80); 100 % of control (dose: 50.0 mg/kg/injection, schedule: Q01DX009 (ip), vehicle: distilled water + Tween-80); 105 % of control and 109 % of control (dose: 100.0 mg/kg/injection, schedule: Q01DX009 (ip), vehicle: distilled water + Tween-80); 98 % of control (dose: 200.0 mg/kg/injection, schedule: Q01DX009 (ip), vehicle: distilled water + Tween-80). Also, the T/C (dose: 400.0 mg/kg/injection, schedule: Q01DX009 (ip), vehicle: distilled water + Tween-80) is 90 % of control.

As for `C=CCNC(=S)Nc1sc(C)c(C)c1C(=O)OCC`, the T/C was 100 % of control under setting [1], 100 % of control under setting [2] and 97 % of control under setting [3].

In the case of `CNc1c2ccccc2nc2ccccc12`, the T/C reads like this: (dose: 12.5 mg/kg/injection, schedule: Q04DX002 (ip), vehicle: distilled water + Tween-80) 98 % of control; (dose: 25.0 mg/kg/injection, schedule: Q04DX002 (ip), vehicle: distilled water + Tween-80) 100 % of control.

With `C=C=CCC(=O)N1CCCC1`, the T/C is 99 % of control (dose: 50.0 mg/kg/injection, schedule: Q04DX002 (ip), vehicle: saline with Tween-80); 101 % of control (dose: 100.0 mg/kg/injection, schedule: Q04DX002 (ip), vehicle: saline with Tween-80); 104 % of control (dose: 200.0 mg/kg/injection, schedule: Q04DX002 (ip), vehicle: saline with Tween-80).

`COc1ccc(/C=C/c2ccnc3ccccc23)cc1`: the T/C (dose: 6.25 mg/kg/injection, schedule: Q01DX009 (ip), vehicle: saline with Tween-80) is 100 % of control; the T/C under setting [4] is 104 % of control; the T/C under setting [5] was 108 % of control.

In the case of `CCCCC1C(C#N)C(=O)NC(=O)C1C#N` (configuration not stated), the T/C runs as follows: under setting [6], 100 % of control; under setting [7], 95 % of control; under setting [8], 99 % of control.

Consider `Nc1ncnc2nc(C3OC(CO)C(O)C3O)[nH]c12` (configuration not stated), for which the T/C is, setting by setting: (dose: 60.0 mg/kg/injection, schedule: Q01DX005 (ip), vehicle: saline with Tween-80) 104 % of control; (dose: 120.0 mg/kg/injection, schedule: Q01DX005 (ip), vehicle: saline with Tween-80) 98 % of control; (dose: 240.0 mg/kg/injection, schedule: Q01DX005 (ip), vehicle: saline with Tween-80) 95 % of control.

Consider `COc1cc(N=C=S)ccc1NC(=O)c1cc(Br)cc(Br)c1O`, for which the T/C is 106 % of control (dose: 100.0 mg/kg/injection, schedule: Q01DX001 (ip), vehicle: Klucel (hydroxypropylcellulose) (HPC)); 101 % of control (dose: 200.0 mg/kg/injection, schedule: Q01DX001 (ip), vehicle: Klucel (hydroxypropylcellulose) (HPC)); 106 % of control (dose: 400.0 mg/kg/injection, schedule: Q01DX001 (ip), vehicle: Klucel (hydroxypropylcellulose) (HPC)).

With `Cc1c(C)[n+](=O)c2ccc(C=O)cc2n1[O-]`, the T/C runs as follows: (dose: 50.0 mg/kg/injection, schedule: Q01DX009 (ip), vehicle: suspension in saline) 97 % of control; (dose: 100.0 mg/kg/injection, schedule: Q01DX009 (ip), vehicle: suspension in saline) 94 % of control; (dose: 200.0 mg/kg/injection, schedule: Q01DX009 (ip), vehicle: suspension in saline) 94 % of control.

Consider `CCCc1[nH]n(-c2ccccc2)c(=O)c1N=Nc1ccc(Cl)cc1`, for which the T/C by setting is: under setting [9], 96 % of control; under setting [10], 100 % of control; (dose: 200.0 mg/kg/injection, schedule: Q01DX009 (ip), vehicle: saline) 101 % of control.

Turning to `N=c1ncn(C2OC(CO)C(O)C2O)c2nc(Br)[nH]c12` (configuration not stated), the T/C was 100 % of control (dose: 25.0 mg/kg/injection, schedule: Q04DX003 (ip), vehicle: saline with Tween-80); 105 % of control (dose: 50.0 mg/kg/injection, schedule: Q04DX003 (ip), vehicle: saline with Tween-80); 100 % of control (dose: 100.0 mg/kg/injection, schedule: Q04DX003 (ip), vehicle: saline with Tween-80); 98 % of control (dose: 200.0 mg/kg/injection, schedule: Q04DX003 (ip), vehicle: saline with Tween-80).

On to `CC(=O)C1=C(C)O/C(=C/c2ccc(Cl)cc2)C1=O`, for which the T/C reads like this: (dose: 25.0 mg/kg/injection, schedule: Q01DX005 (ip), vehicle: saline with Tween-80) 118 % of control; (dose: 50.0 mg/kg/injection, schedule: Q01DX005 (ip), vehicle: saline with Tween-80) 118 % of control and 120 % of control; (dose: 100.0 mg/kg/injection, schedule: Q01DX005 (ip), vehicle: saline with Tween-80) 119 % of control and 124 % of control.

For the molecule `O=C(Nc1ccc([N+](=O)[O-])cc1)N1CCOCC1`, the T/C is 97 % of control under setting [4]; 89 % of control under setting [5]; 86 % of control and 92 % of control under setting [1]; 88 % of control under setting [3].

On to `CCCCCC(CN(C)C)C(/C=C/c1ccc(Cl)c(Cl)c1)=N\O` (configuration not stated), for which the T/C under setting [9] was 116 % of control and the T/C under setting [10] was 105 % of control.

In the case of `Cc1cc(O)c(C=O)c2c1C(=O)Oc1c(CO)c(O)c3c(c1O2)C(O)OC3=O` (configuration not stated), the T/C under setting [1] is 124 % of control.

For `Nc1c(Cl)c(Cl)nc(C(=O)O)c1Cl`, the T/C is 101 % of control (dose: 25.0 mg/kg/injection, schedule: Q01DX009 (ip), vehicle: Klucel (hydroxypropylcellulose) (HPC)); 102 % of control under setting [5]; 86 % of control under setting [6]; 100 % of control under setting [1]; 93 % of control under setting [7]; 100 % of control under setting [2]. Moreover, the T/C under setting [8] is 93 % of control; the T/C under setting [3] is 111 % of control; the T/C (dose: 400.0 mg/kg/injection, schedule: Q01DX009 (ip), vehicle: saline with Tween-80) is 115 % of control.
